According to PMC7044129, “Spexin and a Novel Cichlid-Specific Spexin Paralog Both Inhibit FSH and LH Through a Specific Galanin Receptor (Galr2b) in Tilapia” (Frontiers in Endocrinology, 2020):
No end group written: not given here.

Columns and labels:
[1] = test system: Tilapia D2 dopamine receptor; conditions: COS7 cells, SRE-Luc and Gqi5
Experimental: (§1) EC50 values were calculated from dose response curves by means of computerized non-linear curve fitting on baseline-corrected (control) values using Prism version 6 software (GraphPad).
(1 picture or pasted object on this page, not shown here)

[2] = test system: spexin expression; conditions: spotted scat, in vitro; cited from earlier work
Text: (§2) Spexin has been implicated in regulating the hypothalamic-pituitary-gonad (HPG) axis in some fish species. […] The first report on fish spexin in zebrafish and goldfish identified high and dynamic expression in the brain throughout the reproductive stages ([10]). […] Ovariectomized goldfish had increased hypothalamic spexin e ...

[3] = molecular target: tilapia Galr2a (Oreochromis niloticus, UniProt A0A650AWG9); format: cell-based, Nile tilapia (Oreochromis niloticus); conditions: Gqi pathway (chimeric Gqi5 with SRE-luc, Gαi readout), COS7 cells, 6 h stimulation after 16 h serum starvation, mean ± SEM, minimum three independent transfections, triplicate wells
Experimental: as §1

[4] = test system: GALR2; conditions: cited from earlier work
Text: (§3) The galanergic neurotransmission system is one of the newest described signaling systems. […] Three different types of galanin receptors have been described so far in mammals: galanin receptor 1, 2, and 3 (GALR1, GALR2, and GALR3) ([14]). All of them are members of the G protein-coupled receptor (GPCR) family and act through stimulation of various seco ...

[5] = test system: GALR3; conditions: cited from earlier work
Text: as §3

[6] = test system: Galr2a; conditions: cited from earlier work
Text: as §3

[7] = test system: Galr2b; conditions: cited from earlier work
Text: as §3

[8] = test system: LH release; conditions: goldfish; cited from earlier work
Text: as §2

[9] = test system: goldfish pituitary cultures; conditions: cited from earlier work
Text: as §2

[10] = test system: GnIH, GnRH-III, GpHα and FSHβ expression; conditions: sole; cited from earlier work
Text: Spexin mRNA expression levels may also be correlated with reproductive development. Increases in LH and FSH mRNA expression is seasonal and corresponds to gonadal development ([50], [51]).

[11] = test system: agouti-related peptide (AgRP) expression; conditions: zebrafish; cited from earlier work
Text: (§4) Spexin plays a role in feeding behavior and metabolism in fish and mammals [reviewed in ([3])]. In the orange-spotted grouper ([11]), half-smooth tongue sole ([46]), and spotted scat ([46]), starvation increased Spx1 expression. […] This effect was also observe ...

[12] = test system: appetite stimulants and anorexigenic factors in the brain; conditions: goldfish brain, central administration, cited from earlier work
Text: as §4

[13] = test system: feeding behavior induced by NPY and orexin; conditions: intracerebroventricular injection; no reference printed at the sentence (preceding sentence ref 2); cited from earlier work
Text: as §4

[14] = test system: goldfish; conditions: injection; cited from earlier work
Text: as §4

[15] = test system: GalR2; conditions: cited from earlier work
Text: Spexin mediates its effects by activating an inhibitory G-protein (Gαi) via galanin receptor (GalR) 2/3. Like the kisspeptin, galanin, and spexin peptides, the kisspeptin and galanin receptors are related. Ancestral forms of KissR, GalR1, and GalR2/3 were identified on different VACs with 1R and 2R expanding each clade, giving rise to four KissR (KissR1, 3, 2, 4), two GalR1 (1a, 1b), two GalR2 (2a, 2b) and GalR3 paralogs ([15]). Our phylogenetic analysis supports that of Kim et al. ([15]), showing that GalRs are divided into two major clades, namely GalR1 and GalR2/3, with KissRs forming a dis ...

[16] = test system: adrenocortical cell; conditions: mammals; cited from earlier work
Text: (§5) Spexin (SPX1; also termed neuropeptide Q) was identified first by computational methods in humans ([1]), and then also by chemical methods in goldfish ([2]). These computational methods have been attempted mostly on the basis of the characteristics of the prohormones from which active neuropeptides are processed. The mature peptide sequence contains 14 amino acids that are flanked by monobasic and dibasic proteolytic cleavage sites. […] A paralog o ...

[17] = test system: stomach contraction; conditions: mammals; cited from earlier work
Text: as §5

[18] = test system: hypothalamic spexin expression; conditions: ovariectomized goldfish, estrogen replacement; cited from earlier work
Text: as §2

[19] = test system: Spx1 levels and expression; conditions: cited from earlier work
Text: as §4

tilapia Galr2a, sequence (A0A650AWG9 entry or part of it): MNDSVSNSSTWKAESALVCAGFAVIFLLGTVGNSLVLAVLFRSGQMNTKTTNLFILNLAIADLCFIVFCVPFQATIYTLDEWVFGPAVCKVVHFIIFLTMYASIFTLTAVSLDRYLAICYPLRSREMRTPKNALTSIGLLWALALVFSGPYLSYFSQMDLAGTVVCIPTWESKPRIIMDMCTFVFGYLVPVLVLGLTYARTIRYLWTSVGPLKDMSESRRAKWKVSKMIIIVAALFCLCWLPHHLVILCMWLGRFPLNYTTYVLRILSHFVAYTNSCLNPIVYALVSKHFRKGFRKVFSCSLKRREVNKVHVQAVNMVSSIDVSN

## NCCc1ccc(O)c(O)c1 [dopamine]
[1]
  luciferase activity via tilapia D2 receptor with Gqi5 (in words): dose-dependent increase in luciferase activity

## C[C@]12CC[C@@H]3c4ccc(O)cc4CC[C@H]3[C@@H]1CC[C@@H]2O [estradiol]
[2]
  spexin expression: decreased spexin expression in a dose-dependent manner in vitro

## GWTLNSAGYLLGPHAVGNHRSFSNKNGLTS-NH2 [Galanin]
[3]
  EC50: 0.0001 ± 5.6 log nM

## Spexin: spexin of cited literature; 14 amino acid peptide hormone, species varies
[4]
  functional agonism at human GALR2: functional agonist
[5]
  functional agonism at human GALR3: functional agonist
[6]
  functional agonism at zebrafish Galr2a: functional agonist
[7]
  functional agonism at zebrafish Galr2b: functional agonist
[8]
  LH release in vivo: inhibited LH release
[9]
  LH release in pituitary cultures: inhibited LH release
[10]
  GnIH and GnRH-III expression: increasing gonadotropin inhibitory hormone (GnIH) and GnRH-III expression
  GpHα and FSHβ expression: decreasing GpHα and FSHβ expression
[11]
  AgRP expression: suppressed agouti-related peptide (AgRP) expression
[12]; POMC, CART, CCK, MCH, CRH
  expression of anorexigenic factors: increased expression of anorexigenic factors
[12]
  expression of appetite stimulants: decrease in expression of appetite stimulants (NPY, AgRP, and apelin)
[13]
  NPY- and orexin-induced feeding: inhibited feeding behavior induced by NPY and orexin
[14]
  feeding behavior: decreased surface feeding and increased food rejection
[15]
  dissociation / receptor internalization at GalR2: quickly dissociated after G-protein signaling
[16]
  adrenocortical cell proliferation: inhibiting adrenocortical cell proliferation
[17]
  stomach contraction: inducing stomach contraction

## estrogen
[18]
  hypothalamic spexin expression: returned expression to basal levels

## insulin: insulin (cited study on spexin regulation)
[19]
  circulating Spx1 and brain Spx1 expression: increase circulating levels of Spx1 and its expression in the telencephalon, hypothalamus, and optic tectum
